Test results reported in ChEMBL document CHEMBL1201862, “PubChem BioAssay data set” (2004).
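All cell lines were grown in 96-well plates and treated with compound for 48 hours. GI50 = concentration required for 50% inhibition of growth.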 Activity calls are given as the source filed them. Rule as the data show it: active = GI50 up to about 1.1 µM and inactive = higher.

What was measured:
Test in all cases: NCI-60 cell line screen, 48 h
786-0 = tested on: 786-0
CCRF-CEM = tested on: CCRF-CEM
EKVX = tested on: EKVX
HCT-15 = tested on: HCT-15
LOX IMVI = tested on: LOX IMVI
MCF7 = tested on: MCF7
MDA-MB-231 = tested on: MDA-MB-231
MDA-MB-435 = tested on: MDA-MB-435
MDA-N = tested on: MDA-N
MOLT-4 = tested on: MOLT-4
Malme-3M = tested on: Malme-3M
NCI-H23 = tested on: NCI-H23
RXF 393 = tested on: RXF 393
SK-MEL-5 = tested on: SK-MEL-5
SNB-75 = tested on: SNB-75
TK-10 = tested on: TK-10
U-251 = tested on: U-251
UACC-257 = tested on: UACC-257
UO-31 = tested on: UO-31
NCI-H522 = tested on: NCI-H522

Row | Structure (SMILES) | GI50 (786-0) | GI50 (CCRF-CEM) | GI50 (EKVX) | GI50 (HCT-15) | GI50 (LOX IMVI) | GI50 (MCF7) | GI50 (MDA-MB-231) | GI50 (MDA-MB-435) | GI50 (MDA-N) | GI50 (MOLT-4) | GI50 (Malme-3M) | GI50 (NCI-H23) | GI50 (RXF 393) | GI50 (SK-MEL-5) | GI50 (SNB-75) | GI50 (TK-10) | GI50 (U-251) | GI50 (UACC-257) | GI50 (UO-31) | GI50 (NCI-H522)
1 | CCOC(=O)CON=c1c2ccccc2ccc2ccccc12 | > 100 µM (inactive) | > 100 µM (inactive) | > 100 µM (inactive) | > 100 µM | > 100 µM (inactive) | > 100 µM (inactive) | > 100 µM (inactive) | > 100 µM (inactive) | > 100 µM (inactive) | > 100 µM (inactive) | > 100 µM (inactive) | > 100 µM (inactive) | > 100 µM (inactive) | > 100 µM (inactive) | > 100 µM (inactive) | > 100 µM (inactive) | > 100 µM (inactive) | > 100 µM (inactive) | > 100 µM (inactive) | –
2 | CC1=CC(=O)CC(C)(C)C1/C=C/C(C)=C/C=C/C(C)=C/C=C/C=C(C)/C=C/C=C(C)/C=C/C1=C(C)CC(O)CC1(C)C (centres undefined) | 22 µM (inactive) | 24.9 µM (inactive) | 57.3 µM (inactive) | 24.1 µM | 31.3 µM (inactive) | 16.3 µM (inactive) | 64.3 µM (inactive) | 25 µM (inactive) | 29.9 µM (inactive) | 0.0853 µM (active) | – | 27.9 µM (inactive) | 20.1 µM (inactive) | 33 µM (inactive) | – | 50.2 µM (inactive) | 37.8 µM (inactive) | 37.7 µM (inactive) | 44.8 µM (inactive) | 23.2 µM (inactive)
3 | O=C1Cc2c([nH]c3c(Br)cccc23)-c2ccccc2N1 | > 100 µM (inactive) | 16.4 µM (inactive) | > 100 µM (inactive) | 25.1 µM | 25.8 µM (inactive) | 24.6 µM (inactive) | 33.9 µM (inactive) | > 100 µM (inactive) | > 100 µM (inactive) | 16.4 µM (inactive) | > 100 µM (inactive) | > 100 µM (inactive) | – | 30.1 µM (inactive) | 33 µM (inactive) | – | 57.7 µM (inactive) | > 100 µM (inactive) | 37.9 µM (inactive) | –
4 | COc1cc(C2SCC(=O)N2Cc2ccccc2)cc(OC)c1OC (centres undefined) | > 100 µM (inactive) | > 100 µM (inactive) | > 100 µM (inactive) | > 100 µM | > 100 µM (inactive) | > 100 µM (inactive) | > 100 µM (inactive) | > 100 µM (inactive) | > 100 µM (inactive) | > 100 µM (inactive) | – | > 100 µM (inactive) | – | > 100 µM (inactive) | – | > 100 µM (inactive) | > 100 µM (inactive) | > 100 µM (inactive) | > 100 µM (inactive) | 90.4 µM (inactive)
5 | CCCCCc1c2nc(c(CCCCC)c3ccc([nH]3)c(CCCCC)c3nc(c(CCCCC)c4ccc1[nH]4)C=C3)C=C2 | > 100 µM (inactive) | > 100 µM (inactive) | > 100 µM (inactive) | > 100 µM | > 100 µM (inactive) | > 100 µM (inactive) | > 100 µM (inactive) | > 100 µM (inactive) | > 100 µM (inactive) | > 100 µM (inactive) | > 100 µM (inactive) | > 100 µM (inactive) | – | > 100 µM (inactive) | > 100 µM (inactive) | > 100 µM (inactive) | > 100 µM (inactive) | > 100 µM (inactive) | > 100 µM (inactive) | > 100 µM (inactive)
6 | NC(=O)c1nnc2ccc(F)cc2c1N | > 100 µM (inactive) | > 100 µM (inactive) | > 100 µM (inactive) | > 100 µM | 69 µM (inactive) | > 100 µM (inactive) | > 100 µM (inactive) | > 100 µM (inactive) | > 100 µM (inactive) | > 100 µM (inactive) | > 100 µM (inactive) | > 100 µM (inactive) | – | > 100 µM (inactive) | > 100 µM (inactive) | 68.7 µM (inactive) | > 100 µM (inactive) | > 100 µM (inactive) | 40.3 µM (inactive) | 94.6 µM (inactive)
7 | O=c1[nH]/c(=C/c2ccc(OCc3ccccc3)cn2)c(=O)[nH]/c1=C/c1ccccc1 | 0.128 µM (active) | 0.126 µM (active) | 0.138 µM (active) | 0.135 µM | 0.207 µM (active) | 0.425 µM (active) | 0.59 µM (active) | 0.0434 µM (active) | 0.0402 µM (active) | 0.327 µM (active) | – | 0.107 µM (active) | 0.0951 µM (active) | 0.106 µM (active) | 0.0643 µM (active) | 0.164 µM (active) | 0.119 µM (active) | – | – | 0.0942 µM (active)
8 | CC1=C[C@H](C[C@]2(C)c3c(c4c(C)cccc4oc3=O)O[C@@H]2C)OC1=O | 22.8 µM (inactive) | 19.3 µM (inactive) | > 100 µM (inactive) | 18.3 µM | 34.3 µM (inactive) | 52.6 µM (inactive) | 40.2 µM (inactive) | 41.7 µM (inactive) | 36.6 µM (inactive) | 21.1 µM (inactive) | 29.9 µM (inactive) | 65.5 µM (inactive) | – | > 100 µM (inactive) | > 100 µM (inactive) | > 100 µM (inactive) | > 100 µM (inactive) | > 100 µM (inactive) | 32.5 µM (inactive) | 22.6 µM (inactive)
9 | NC(=O)C(=CN1CC(=O)NC1=S)C(N)=O | > 100 µM (inactive) | – | > 100 µM (inactive) | > 100 µM | > 100 µM (inactive) | > 100 µM (inactive) | > 100 µM (inactive) | > 100 µM (inactive) | > 100 µM (inactive) | > 100 µM (inactive) | – | > 100 µM (inactive) | > 100 µM (inactive) | > 100 µM (inactive) | > 100 µM (inactive) | > 100 µM (inactive) | > 100 µM (inactive) | > 100 µM (inactive) | > 100 µM (inactive) | –
10 | Nn1c(-c2ccccc2)n[nH]c1=O | > 100 µM (inactive) | > 100 µM (inactive) | > 100 µM (inactive) | > 100 µM | > 100 µM (inactive) | > 100 µM (inactive) | > 100 µM (inactive) | > 100 µM (inactive) | > 100 µM (inactive) | > 100 µM (inactive) | 80.2 µM (inactive) | > 100 µM (inactive) | – | > 100 µM (inactive) | > 100 µM (inactive) | > 100 µM (inactive) | > 100 µM (inactive) | > 100 µM (inactive) | > 100 µM (inactive) | > 100 µM (inactive)
11 | Cc1ncc([N+](=O)[O-])n1CCNC(=O)CCCCn1ccnc1[N+](=O)[O-] | > 100 µM (inactive) | > 100 µM (inactive) | – | > 100 µM | – | > 100 µM (inactive) | > 100 µM (inactive) | > 100 µM (inactive) | > 100 µM (inactive) | > 100 µM (inactive) | > 100 µM (inactive) | > 100 µM (inactive) | – | > 100 µM (inactive) | 97.5 µM (inactive) | – | > 100 µM (inactive) | > 100 µM (inactive) | > 100 µM (inactive) | > 100 µM (inactive)
12 | C(/c1ccco1)=c1/nc(-c2ccccc2)n2c1nc1ccccc12 | 11 µM (inactive) | 16.6 µM (inactive) | 0.0107 µM (active) | 97.3 µM | 42.4 µM (inactive) | 42.6 µM (inactive) | 16.5 µM (inactive) | 14.4 µM (inactive) | 17.6 µM (inactive) | 10.3 µM (inactive) | 16.4 µM (inactive) | 35.2 µM (inactive) | 20.2 µM (inactive) | 20.6 µM (inactive) | – | 34.8 µM (inactive) | 40.6 µM (inactive) | > 100 µM (inactive) | 67 µM (inactive) | –
13 | O=[N+]([O-])/C=C(\CS(=O)(=O)c1ccccc1)c1ccc2c(c1)OCO2 | 38.5 µM (inactive) | 0.56 µM (active) | > 100 µM (inactive) | 37.2 µM | 37.2 µM (inactive) | 48.2 µM (inactive) | 23.1 µM (inactive) | 23.8 µM (inactive) | 39.2 µM (inactive) | 67.9 µM (inactive) | – | 5.69 µM (inactive) | 64.3 µM (inactive) | 45.1 µM (inactive) | > 100 µM (inactive) | – | 88.5 µM (inactive) | – | 28.6 µM (inactive) | 21.7 µM (inactive)
14 | Cc1c2oc(=O)c(C#N)cc2c2ccccn12 | > 100 µM (inactive) | > 100 µM (inactive) | > 100 µM (inactive) | 89.9 µM | 71.9 µM (inactive) | > 100 µM (inactive) | > 100 µM (inactive) | > 100 µM (inactive) | > 100 µM (inactive) | > 100 µM (inactive) | 97.3 µM (inactive) | 7.64 µM (inactive) | > 100 µM (inactive) | > 100 µM (inactive) | > 100 µM (inactive) | > 100 µM (inactive) | 99.3 µM (inactive) | > 100 µM (inactive) | 60.7 µM (inactive) | –
15 | [N-]=[N+]=Nc1c([N+](=O)[O-])c(=O)n2c3c(cccc13)CCC2 | 17.1 µM (inactive) | 1.97 µM (inactive) | 19.4 µM (inactive) | 6.44 µM | 14.4 µM (inactive) | 11 µM (inactive) | 10.6 µM (inactive) | 17.3 µM (inactive) | 14.4 µM (inactive) | 2.48 µM (inactive) | 1.62 µM (inactive) | 16.1 µM (inactive) | – | 16.7 µM (inactive) | 19.4 µM (inactive) | 20 µM (inactive) | 17.5 µM (inactive) | 8.15 µM (inactive) | 15.2 µM (inactive) | 2.08 µM (inactive)
16 | COc1ccc2c(=O)cc(-c3ccc(OC)c(OC)c3OC)oc2c1 | > 100 µM (inactive) | > 31.6 µM (inactive) | > 64.3 µM (inactive) | > 100 µM | > 75.7 µM (inactive) | – | 38.7 µM (inactive) | > 100 µM (inactive) | 95.3 µM (inactive) | 55.5 µM (inactive) | 40.4 µM (inactive) | > 100 µM (inactive) | > 80.9 µM (inactive) | 49 µM (inactive) | 23.4 µM (inactive) | > 100 µM (inactive) | > 100 µM (inactive) | > 100 µM (inactive) | > 100 µM (inactive) | > 39.8 µM (inactive)
